From the METLIN SMRT retention time set (Domingo-Almenara et al. 2019)

Experiment: gradient 5% acetonitrile 3 min, to 50% in 2 min, to 85% in 15 min, held 3 min, 100 µL/min
Conditions: column: Zorbax Extend-C18 2.1 x 50 mm; eluents: water / acetonitrile, 0.1% formic acid
In short: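 In both positive and negative ionization mode, a quadrupole time-of-flight mass spectrometer coupled to HPLC analyzed pure standards run in mixtures of ~100 molecules. The Zorbax Extend-C18 column (2.1 × 50 mm, 1.8 μm) was operated at 100 μL/min with water and acetonitrile, each containing 0.1% formic acid. The dead volume was 40 μL and the dwell volume 900 μL. Retention time came from adduct peaks that were computationally picked and individually inspected by hand.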

Row | SMILES | RP-LC retention time
1 | CC(=O)c1ccc(N2CCN(C(=O)C(=O)c3cccn3C)CC2)cc1 | 735 s
2 | Cc1cc(C(=O)NCC2CCN(C(=O)Oc3ccccc3)CC2)c(C)o1 | 829 s
3 | O=C(Nc1ncn[nH]1)C1CCC1 | 546 s
4 | COCc1nnc(-c2ccc(F)cc2)o1 | 740 s
5 | O=C(NCCc1c[nH]c2ccccc12)C1CCN(c2nnc(N3CCCCC3=O)s2)CC1 | 709 s
6 | COCC(C)(O)CNC(=O)c1cn(C)nc1OC (stereo not given) | 561 s
7 | O=C(CCn1nnc2cc(-c3noc(Cc4ccccc4Br)n3)ccc21)N1CCOCC1 | 860 s
8 | Cc1oc(-c2[nH]ncc2C(=O)N2CCOCC2)cc1S(=O)(=O)N1CCC(C)CC1 | 703 s
9 | CCOc1ccc(S(=O)(=O)NCC(c2cn(C)c3ccccc23)N(C)C)cc1F (stereo not given) | 603 s
10 | CC(=O)N1CCc2[nH]c3ccc(C(=O)Nc4ccc(N5CCOCC5)cc4)cc3c2C1 | 654 s
11 | O=C1NCN(c2ccccc2)C12CCN(CCCC(c1ccc(F)cc1)c1ccc(F)cc1)CC2 | 892 s
12 | CCOC(=O)c1c(C)c(C(=O)CN(CC2CCCO2)C(=O)c2ccc(F)cc2)c(C)n1CC (stereo not given) | 973 s
13 | CC1CCCCN1CCNC(=O)c1ccc(-c2ccnc(N3CCCC3)n2)cc1 (stereo not given) | 1230 s
14 | CCOc1ncccc1C(=O)NCc1cc(-c2cccs2)on1 | 831 s
15 | Fc1cc(F)cc(-c2noc3ncnc(N4CCN(c5ccccn5)CC4)c23)c1 | 678 s
16 | Cc1cc([N+](=O)[O-])ccc1NC(=O)c1ccc(-n2cnnn2)cc1 | 803 s
17 | Cc1ccc(CNC(=O)C2CCN(S(=O)(=O)c3cc(C(=O)N4CCOCC4)cs3)CC2)cc1 | 765 s
18 | CC1=C(C(=O)Nc2ccc(Cl)cc2C(=O)NC(C)c2ccccc2)SCCO1 (stereo not given) | 1190 s
19 | Cc1cccc(-c2noc(Cn3cnc4c(cnn4-c4ccc(C)c(Cl)c4)c3=O)n2)c1 | 1280 s
20 | O=C(CCCn1c(=O)c2cccn2c2ccc(F)cc21)N1CCCCCC1 | 934 s
21 | COc1ccc(-c2nn(-c3ccccc3)cc2C(=O)O)cc1N | 661 s
22 | Cc1ccc2[nH]cc(CCN3CC(C(=O)Nc4nnc(C)s4)CC3=O)c2c1 (stereo not given) | 785 s
23 | Cc1cc(NC(=O)NCCc2c(C)nn(C)c2C)ccc1Br | 705 s

Row | SMILES | RP-LC retention time
24 | CCCN(CC1CCOC1)S(=O)(=O)c1ccccc1C(F)(F)F (stereo not given) | 946 s
25 | Cc1cc(NCc2ccccn2)nc(-n2cc([N+](=O)[O-])cn2)n1 | 564 s
26 | COc1ccc(CSc2nccc3c2ccn3CC(=O)NCc2ccc(OC)c(OC)c2)cc1 | 681 s
27 | O=S(=O)(NCCc1ccccn1)c1ccc2ccccc2c1 | 574 s
28 | COc1cc(NC(=O)c2cn(-c3cc(N4CCC(C)CC4)ncn3)cn2)cc(OC)c1 | 1110 s
29 | CC(C)n1c(=O)c2ccccc2n(Cc2nc(-c3cccc(C(F)(F)F)c3)no2)c1=O | 1230 s
30 | COc1ccc(-c2nc(CNC(=O)c3coc(-c4ccccc4)n3)no2)cc1 | 950 s
31 | COc1cc(-n2c(=O)c3ccccc3n(Cc3ccccc3F)c2=O)cc(OC)c1OC | 850 s
32 | CCCn1ccc2sc(C)c(C(=O)NCc3cc(OC)ccc3OC)c2c1=O | 889 s
33 | Cc1cc(C)cc(N2CC(c3nc(-c4ccccc4F)no3)CC2=O)c1 (stereo not given) | 1010 s
34 | CCc1ccc(C(=O)N2CCC(COc3ccc(C(=O)NC(C)C)cc3)CC2)cc1 | 941 s
35 | CC1CC(C)CN(S(=O)(=O)c2cccc(-c3cn4cc(Cl)ccc4n3)c2)C1 (stereo not given) | 1090 s
36 | COc1ccc(OC)c(NC(=O)NCC(=O)N2CCc3ccccc32)c1 | 804 s
37 | CCc1ccc(S(=O)(=O)Nc2ccc3c(c2)nc(-c2ccc(C(=O)NC)cc2)n3C)cc1 | 674 s
38 | Cc1cc(C)cc(S(=O)(=O)N2CCc3c(c(-c4nnc(-c5ccccc5F)o4)nn3C)C2)c1 | 998 s
39 | O=c1c2cnc(N3CCOCC3)nc2ccn1CCc1c[nH]c2ccccc12 | 801 s
40 | CCOc1ccc(-n2nnnc2CNC(=O)Nc2cccs2)cc1 | 722 s
41 | Cc1noc(C)c1S(=O)(=O)N1CCC(c2nc(CCOCc3ccccc3)no2)C1 (stereo not given) | 984 s
42 | CC(C)n1cnc2cc(CNC(=O)c3ccccc3F)ccc21 | 606 s
43 | Cc1ccc(-c2nnc(C)c(NCc3ccc4c(c3)OCO4)n2)cc1 | 730 s
44 | CC(C)N1C(=O)c2cccnc2Sc2cc(NC(=O)c3ccc(F)cc3)ccc21 | 896 s
45 | Cc1ccc(Cl)cc1NC(=O)CN1CCN(Cc2ccc(F)cc2)C(=O)C1=O | 804 s

Now from value to compound:

Row | RP-LC retention time | SMILES
46 | 786 s | CCCCOc1ccc(NC(=O)c2cc(=O)c3cc(CC)ccc3o2)c2cccnc12
47 | 730 s | Cc1cc(NS(=O)(=O)c2cc(-c3[nH]ncc3C(=O)N3CCCC3)oc2C)ccc1F
48 | 640 s | CCOC(=O)c1ccc(NC(=O)N2CCN(CC)c3ncccc32)cc1
49 | 1090 s | CCN(CC)S(=O)(=O)c1ccc(F)c(-c2nnc(-c3ccccc3Br)o2)c1
50 | 569 s | Cc1nc(N2CCN(c3ccccn3)CC2)c2c3c(sc2n1)CCC3
51 | 869 s | O=C(Cn1cccc1-c1nnc(C2CC2)o1)NCc1cccc(Br)c1
52 | 919 s | COc1ccc(OCc2nc(CCN(C)C(=O)CC3CCCC3)no2)cc1
53 | 974 s | CS(=O)(=O)Nc1ccc(-c2noc(COc3ccc(Cl)cc3)n2)cc1
54 | 696 s | CN(CC1CCOCC1)C(=O)Nc1cc(F)ccc1F
55 | 776 s | CCCNC(=O)N1CCCN(C2=NS(=O)(=O)C(c3ccc(C)cc3)=C2C)CC1
56 | 930 s | CC(C)c1csc(-c2csc(S(=O)(=O)NCc3ccc(N(C)C)cc3)c2)n1
57 | 679 s | CCS(=O)(=O)N1CCCc2cc(C(=O)N3CCOCC3)ccc21
58 | 982 s | CCN(CC)S(=O)(=O)c1ccc(NC(=O)c2oc3c(c2C)C(=O)CC(C)(C)C3)cc1
59 | 776 s | Cc1nc(CCNC(=O)C2CCN(S(=O)(=O)c3cccc(C(F)(F)F)c3)CC2)cs1
60 | 1040 s | CCn1cc(-c2nc(CC(=O)Nc3cc(C)ccc3OC)cs2)c2cccnc21
61 | 879 s | CCn1cc(-c2ccc(Cl)cc2)cc1C(=O)NCCCN1CCCC1=O
62 | 795 s | Cc1ccc(-c2ccc3nnc(CCC(=O)NCCCOC(C)C)n3n2)cc1C
63 | 972 s | COc1ccc(OC)c(NC(=O)N(C)CCc2noc(-c3ccc(Cl)cc3)n2)c1
64 | 900 s | COc1cc(Cl)c(CC2C(=O)Nc3ccccc32)cc1OC (stereo not given)
65 | 711 s | Cc1cc(C)cc(NC(=O)NCC(c2cccnc2)c2cn(C)c3ccccc23)c1 (stereo not given)
66 | 1060 s | COc1ccc(-c2nnc(-c3cccc(S(=O)(=O)N4CCCCC4)c3)o2)cc1
67 | 1140 s | Cc1csc(-c2cc(S(=O)(=O)Nc3ccc(Cl)cc3C)c(C)s2)n1
68 | 623 s | O=C(O)c1ccc(-c2ccc(N3CCCCCC3)nc2)cc1

Row | RP-LC retention time | SMILES
69 | 936 s | COC(=O)c1cccc(C(=O)Nc2cc(C)ccc2C)n1
70 | 936 s | C[C@@H]1CN(C(=O)c2ccco2)C[C@H]1c1nc(-c2ccccc2)no1
71 | 1060 s | CCc1cc(C(=O)Nc2ccc(C)cc2)nc2ccnn12
72 | 1000 s | O=C(NCc1ccc(F)cc1F)c1cnn2c(-c3ccc4c(c3)OCO4)ccnc12
73 | 634 s | Cc1nnc2n1CCC(N(C)S(=O)(=O)c1ccccc1F)CC2 (stereo not given)
74 | 874 s | COc1cccc(CNC(=O)c2nnc(-c3ccc(S(=O)(=O)N4CCCC4)cc3)o2)c1
75 | 630 s | Cc1nc(C)n(CC(=O)Nc2ccc(F)cc2)c(=O)c1C
76 | 606 s | O=C(NC1CCCN(c2cc(N3CCCC3)ncn2)C1)c1ccccn1 (stereo not given)
77 | 668 s | CCOC(=O)N1CCN(c2nnc(SCC(=O)NCc3ccco3)s2)CC1
78 | 588 s | CNC(=O)CCNc1c(-c2ccc(OC)cc2)nc2cnccn12
79 | 831 s | O=S(=O)(c1cccn2c(SCc3cccc(F)c3)nnc12)N1CCCC1
80 | 709 s | COc1ccc(CCC(=O)N2CCN(c3nnc4ccc(C(F)(F)F)cn34)CC2)cc1
81 | 805 s | Cc1ccc(-n2c(N3CCCC(C(=O)NCC4CC4)C3)nc3ccsc3c2=O)cc1 (stereo not given)
82 | 1010 s | Cc1ccc(N2CC(c3noc(-c4ccc(F)cc4)n3)CC2=O)cc1 (stereo not given)
83 | 566 s | Cc1nnc2n1CCC(N(C)C(=O)c1ccsc1)CC2 (stereo not given)
84 | 593 s | Cc1cc(C)n(CCNC(=O)c2ccsc2)n1
85 | 885 s | CN(C)CCCN1c2ccccc2Sc2ccc(C(F)(F)F)cc21
86 | 736 s | O=C(NCc1ccc2c(c1)OCO2)C1CCCN(c2cnc3ccccc3n2)C1 (stereo not given)
87 | 612 s | O=C(CN1C[C@H]2C[C@H](C1)[C@H]1CCCC(=O)N1C2)NCC1CCCCC1
88 | 894 s | CC(C)c1noc(C2(NC(=O)c3cnccn3)CCCCC2)n1
89 | 1190 s | Cc1ccc(-c2ccc(-n3nc(C)c(S(=O)(=O)N4CCCCC4)c3C)nn2)cc1
90 | 827 s | Cc1sc2ccn(C)c(=O)c2c1C(=O)NCc1ccc(F)cc1Cl
